Results on one substance are retold here after patent US8587857B2, “Electro-wetting display device and non-polar color solution thereof” (Industrial Technology Research Institute, priority 2010, dated 2013).

A short description of the series: solubility of dye in dodecane non-polar solvent, with or without trimethylbenzene (TMB) improvement agent. It is filed as physicochemical. The procedure:
For example, when a red dye (for example, the C.I. solvent red 164) is dissolved in a dodecane non-polar solvent, a solubility thereof is about 4 wt %.
For another example, when a blue dye (for example, the C.I. solvent blue 98) is dissolved in the dodecane non-polar solvent, a solubility thereof is about 8 wt %.

Turning to C.I. solvent blue 98, the solubility is listed as 21.5 wt % (dye dissolved in dodecane non-polar solvent added with trimethylbenzene (TMB) improvement agent) and “about 8 wt %” (dye dissolved in dodecane non-polar solvent, no improvement agent).
